The nature of this data set: Toxicology tests, oral LD50. The settings on record: rat, in vivo, rats.

Each structure is given as a SMILES string.

In the case of `CC(C(C)C(C)(C)C)C(C)C1(C)CO1` (stereo not shown) [2-methyl-2-(1,2,3,4,4-pentamethylpentyl)oxirane], the LD50 was more than 2000 mg/kg.

In general, LD50 refers to the dose expected to kill half of the subjects tested. Read a low LD50 as a more toxic substance.

Source of the values: patent publication US20080279800A1, “AROMACHEMICALS” (Flexitral, Inc., priority 2007, published 2008).
